Assay results published in ChEMBL document CHEMBL3352641, “Discovery of pyrrolo[1,2-b]pyridazine-3-carboxamides as Janus kinase (JAK) inhibitors” (Bioorg Med Chem Lett, 2014).

What was measured:
[1] = target: T1, Tyrosine-protein kinase JAK3 (Homo sapiens, UniProt P52333); assay: Inhibition of JAK3 (unknown origin) by filter assay
T1 sequence (P52333 whole entry): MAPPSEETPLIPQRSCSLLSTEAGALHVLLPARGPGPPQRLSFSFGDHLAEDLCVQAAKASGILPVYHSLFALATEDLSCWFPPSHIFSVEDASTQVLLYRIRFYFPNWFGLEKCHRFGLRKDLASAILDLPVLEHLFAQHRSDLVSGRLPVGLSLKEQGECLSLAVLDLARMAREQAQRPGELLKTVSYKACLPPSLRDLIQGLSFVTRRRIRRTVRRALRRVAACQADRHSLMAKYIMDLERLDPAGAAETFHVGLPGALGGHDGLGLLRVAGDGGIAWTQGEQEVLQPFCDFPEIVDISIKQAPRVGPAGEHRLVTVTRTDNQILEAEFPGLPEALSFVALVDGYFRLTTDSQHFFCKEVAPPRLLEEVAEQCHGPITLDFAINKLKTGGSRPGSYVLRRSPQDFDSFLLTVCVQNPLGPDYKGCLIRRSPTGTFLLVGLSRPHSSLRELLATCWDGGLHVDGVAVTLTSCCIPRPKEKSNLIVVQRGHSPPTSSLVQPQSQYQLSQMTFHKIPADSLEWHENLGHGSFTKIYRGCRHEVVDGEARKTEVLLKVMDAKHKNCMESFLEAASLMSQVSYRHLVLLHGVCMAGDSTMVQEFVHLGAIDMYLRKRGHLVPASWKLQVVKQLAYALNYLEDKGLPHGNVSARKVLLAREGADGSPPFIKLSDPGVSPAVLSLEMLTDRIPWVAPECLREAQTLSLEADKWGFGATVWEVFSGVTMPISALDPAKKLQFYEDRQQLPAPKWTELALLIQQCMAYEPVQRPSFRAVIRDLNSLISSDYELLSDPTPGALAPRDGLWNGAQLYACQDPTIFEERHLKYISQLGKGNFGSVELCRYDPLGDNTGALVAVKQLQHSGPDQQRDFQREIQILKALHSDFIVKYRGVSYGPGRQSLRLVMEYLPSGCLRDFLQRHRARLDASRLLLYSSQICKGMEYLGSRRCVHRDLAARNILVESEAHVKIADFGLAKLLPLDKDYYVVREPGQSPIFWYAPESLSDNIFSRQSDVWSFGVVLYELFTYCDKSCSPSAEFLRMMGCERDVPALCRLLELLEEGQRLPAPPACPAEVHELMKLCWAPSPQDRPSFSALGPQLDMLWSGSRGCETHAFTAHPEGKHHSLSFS

[2] = target: Tyrosine-protein kinase JAK1 (Homo sapiens, UniProt P23458); assay: Inhibition of JAK1 (unknown origin) bycaliper assay
Sequence of Tyrosine-protein kinase JAK1 (P23458 whole entry): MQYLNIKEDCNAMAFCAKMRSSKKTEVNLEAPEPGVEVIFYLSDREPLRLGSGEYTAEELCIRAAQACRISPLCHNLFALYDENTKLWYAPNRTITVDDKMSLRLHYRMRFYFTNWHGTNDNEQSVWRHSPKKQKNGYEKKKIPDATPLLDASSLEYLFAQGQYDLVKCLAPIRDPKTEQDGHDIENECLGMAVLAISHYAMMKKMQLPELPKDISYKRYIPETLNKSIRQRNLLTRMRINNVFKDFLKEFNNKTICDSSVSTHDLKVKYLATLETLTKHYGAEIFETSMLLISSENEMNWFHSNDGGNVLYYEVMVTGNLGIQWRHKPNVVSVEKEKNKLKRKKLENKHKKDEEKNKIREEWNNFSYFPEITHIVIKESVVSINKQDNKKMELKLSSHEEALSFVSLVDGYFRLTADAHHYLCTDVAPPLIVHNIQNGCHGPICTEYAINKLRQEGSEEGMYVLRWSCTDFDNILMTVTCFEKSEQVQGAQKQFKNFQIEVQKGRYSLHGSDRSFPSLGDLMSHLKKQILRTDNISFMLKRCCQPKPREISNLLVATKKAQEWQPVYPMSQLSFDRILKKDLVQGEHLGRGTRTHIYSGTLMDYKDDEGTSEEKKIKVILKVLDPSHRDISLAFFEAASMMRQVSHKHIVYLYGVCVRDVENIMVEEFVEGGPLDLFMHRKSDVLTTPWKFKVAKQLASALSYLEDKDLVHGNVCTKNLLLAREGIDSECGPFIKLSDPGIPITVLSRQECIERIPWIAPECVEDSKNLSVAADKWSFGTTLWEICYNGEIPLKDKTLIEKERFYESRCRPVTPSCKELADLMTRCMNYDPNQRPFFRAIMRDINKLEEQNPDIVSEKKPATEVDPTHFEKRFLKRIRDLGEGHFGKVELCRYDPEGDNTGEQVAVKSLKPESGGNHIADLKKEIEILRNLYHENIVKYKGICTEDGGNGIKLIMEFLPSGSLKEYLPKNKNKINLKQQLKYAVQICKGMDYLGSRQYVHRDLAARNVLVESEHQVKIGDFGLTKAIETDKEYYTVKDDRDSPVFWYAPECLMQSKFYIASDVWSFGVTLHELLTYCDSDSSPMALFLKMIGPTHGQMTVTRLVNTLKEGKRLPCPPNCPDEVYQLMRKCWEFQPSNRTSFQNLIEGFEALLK

[3] = target: Non-receptor tyrosine-protein kinase TYK2 (Homo sapiens, UniProt P29597); assay: Inhibition of TYK2 (unknown origin) by caliper assay
Sequence of Non-receptor tyrosine-protein kinase TYK2 (P29597 whole entry): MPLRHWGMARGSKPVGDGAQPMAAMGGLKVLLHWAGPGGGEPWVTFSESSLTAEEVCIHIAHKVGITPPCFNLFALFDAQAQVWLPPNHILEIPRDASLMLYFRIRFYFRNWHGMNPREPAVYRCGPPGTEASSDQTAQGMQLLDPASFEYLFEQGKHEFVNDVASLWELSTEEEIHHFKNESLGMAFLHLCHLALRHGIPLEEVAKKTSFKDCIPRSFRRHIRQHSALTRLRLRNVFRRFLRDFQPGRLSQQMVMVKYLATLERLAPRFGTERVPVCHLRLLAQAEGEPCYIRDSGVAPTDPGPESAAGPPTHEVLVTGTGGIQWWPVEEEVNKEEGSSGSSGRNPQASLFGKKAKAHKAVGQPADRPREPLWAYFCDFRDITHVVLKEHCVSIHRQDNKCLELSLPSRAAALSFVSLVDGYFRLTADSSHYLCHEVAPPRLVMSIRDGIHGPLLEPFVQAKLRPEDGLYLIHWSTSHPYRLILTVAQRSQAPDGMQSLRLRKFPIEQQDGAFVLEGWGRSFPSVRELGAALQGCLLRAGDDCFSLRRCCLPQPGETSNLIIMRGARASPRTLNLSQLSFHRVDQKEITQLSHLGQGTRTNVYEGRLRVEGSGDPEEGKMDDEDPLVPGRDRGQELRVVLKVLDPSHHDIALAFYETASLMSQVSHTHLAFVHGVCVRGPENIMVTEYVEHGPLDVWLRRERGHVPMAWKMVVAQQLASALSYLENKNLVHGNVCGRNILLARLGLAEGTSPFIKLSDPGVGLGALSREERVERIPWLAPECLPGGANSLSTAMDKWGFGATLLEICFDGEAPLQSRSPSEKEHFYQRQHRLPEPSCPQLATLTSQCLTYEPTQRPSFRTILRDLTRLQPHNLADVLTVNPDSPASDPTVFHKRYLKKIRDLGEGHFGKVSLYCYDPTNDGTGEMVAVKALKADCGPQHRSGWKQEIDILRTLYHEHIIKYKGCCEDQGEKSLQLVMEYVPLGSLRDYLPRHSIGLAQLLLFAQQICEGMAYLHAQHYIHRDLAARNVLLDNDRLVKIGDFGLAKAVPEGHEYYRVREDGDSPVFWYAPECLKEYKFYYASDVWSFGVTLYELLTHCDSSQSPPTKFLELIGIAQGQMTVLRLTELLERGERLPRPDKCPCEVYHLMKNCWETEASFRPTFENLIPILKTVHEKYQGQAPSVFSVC

[4] = target: Tyrosine-protein kinase JAK2 (Homo sapiens, UniProt O60674); assay: Inhibition of JAK2 (unknown origin) by caliper assay
Sequence of Tyrosine-protein kinase JAK2 (O60674 whole entry): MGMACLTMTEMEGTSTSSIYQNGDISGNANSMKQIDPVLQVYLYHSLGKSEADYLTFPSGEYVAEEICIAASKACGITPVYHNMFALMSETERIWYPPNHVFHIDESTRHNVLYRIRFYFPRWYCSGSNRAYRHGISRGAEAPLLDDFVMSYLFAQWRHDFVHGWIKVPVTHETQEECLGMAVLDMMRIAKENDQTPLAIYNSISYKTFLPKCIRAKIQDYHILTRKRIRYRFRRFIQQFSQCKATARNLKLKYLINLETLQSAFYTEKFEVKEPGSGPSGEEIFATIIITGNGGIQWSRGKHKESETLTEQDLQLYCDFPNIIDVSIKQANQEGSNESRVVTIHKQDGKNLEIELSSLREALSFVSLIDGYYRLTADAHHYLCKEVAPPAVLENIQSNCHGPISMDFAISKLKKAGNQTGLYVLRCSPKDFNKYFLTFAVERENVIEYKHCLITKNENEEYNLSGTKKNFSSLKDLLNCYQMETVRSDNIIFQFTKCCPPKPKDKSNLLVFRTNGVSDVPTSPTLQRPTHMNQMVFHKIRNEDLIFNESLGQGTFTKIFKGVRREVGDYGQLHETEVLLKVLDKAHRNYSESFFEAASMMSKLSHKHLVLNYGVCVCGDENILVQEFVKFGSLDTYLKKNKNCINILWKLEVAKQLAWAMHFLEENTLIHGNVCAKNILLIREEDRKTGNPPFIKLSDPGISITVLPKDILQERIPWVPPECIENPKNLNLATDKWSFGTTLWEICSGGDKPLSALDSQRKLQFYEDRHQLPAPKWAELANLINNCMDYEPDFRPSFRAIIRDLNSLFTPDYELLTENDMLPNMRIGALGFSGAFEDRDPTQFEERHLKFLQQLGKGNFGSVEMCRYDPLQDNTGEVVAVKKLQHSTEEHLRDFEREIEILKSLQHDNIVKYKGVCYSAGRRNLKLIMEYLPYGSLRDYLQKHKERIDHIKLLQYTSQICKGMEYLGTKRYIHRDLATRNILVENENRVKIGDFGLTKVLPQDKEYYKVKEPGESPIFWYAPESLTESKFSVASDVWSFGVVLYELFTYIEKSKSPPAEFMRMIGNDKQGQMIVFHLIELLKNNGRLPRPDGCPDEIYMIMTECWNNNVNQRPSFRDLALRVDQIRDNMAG

Blood = assay: Inhibition of IL2-induced IFN-gamma production in human whole blood incubated for 18 hrs by ELISA method; assay type: functional, tissue-based
[5] = Protein binding in human serum; assay type: ADME, cell-free; conditions: read-out: PB (converted)
[6] = Permeability by PAMPA method; assay type: ADME; conditions: read-out: permeability
[7] = Permeability in human Caco2 cells; assay type: ADME, cell-based; conditions: Caco-2, read-out: permeability
[8] = Fraction unbound in human serum; assay type: ADME, cell-free

SMILES	IC50 [1]	IC50 [2]	IC50 [3]	IC50 [4]	IC50 (Blood)	fraction unbound [5]	Papp [6]	Papp [7]	fraction unbound [8]
C[C@@H](Nc1c(C(N)=O)cnn2cccc12)C(C)(C)C	8 nM	48 nM	16 nM	30 nM	930 nM	0.027	86.2 ×10⁻⁶ cm/s	19.2 ×10⁻⁶ cm/s	
CC1(C)[C@H](Nc2c(C(N)=O)cnn3cccc23)CC[C@]1(C)O (racemic)	28 nM	67 nM	210 nM	100 nM	5000 nM				
C[C@@]1(C#N)CCC[C@H]1Nc1c(C(N)=O)cnn2cccc12 (racemic)	67 nM	61 nM	30 nM						
C[C@]1(C#N)CCC[C@H]1Nc1c(C(N)=O)cnn2cccc12 (racemic)	10 nM	15 nM	6 nM		250 nM				0.27
C[C@@]1(F)CCC[C@H]1Nc1c(C(N)=O)cnn2cccc12 (racemic)	43 nM	100 nM	110 nM	210 nM					
CC1(C)CCC[C@H]1Nc1c(C(N)=O)cnn2cccc12	5 nM	24 nM	8 nM	16 nM	1200 nM	0.019			0.019
CC1(C)C[C@](C)(O)C[C@H]1Nc1c(C(N)=O)cnn2cccc12 (racemic)	15 nM	50 nM	90 nM	61 nM	1700 nM				
C[C@]1(O)CCC[C@H]1Nc1c(C(N)=O)cnn2cccc12 (racemic)	69 nM	110 nM							
C[C@]1(CO)CCC[C@H]1Nc1c(C(N)=O)cnn2cccc12 (racemic)	24 nM	84 nM	34 nM	110 nM	1500 nM				
C[C@@]1(F)CCC[C@@H]1Nc1c(C(N)=O)cnn2cccc12	47 nM	190 nM	400 nM	130 nM					
CC1(C)[C@H](O)CC[C@H]1Nc1c(C(N)=O)cnn2cccc12 (racemic)	6 nM	21 nM	22 nM	42 nM	380 nM				0.17
NC(=O)c1cnn2cccc2c1NC1CCCC1		170 nM	150 nM	250 nM					
